Test results taken from patent publication US20100217003A1, “1,2,3,4-TETRAHYDROISOQUINOLINE DERIVATIVES HAVING EFFECTS OF PREVENTING AND TREATING DEGENERATIVE AND INFLAMMATORY DISEASES” (priority 2006, published 2010).

Assays:
[1] = test system: BV-2 cell; assay: Cytotoxicity of single treatment in BV-2 cells; format: cell-based, mouse; conditions: single treatment (not illustrated)
[2] = test system: iNOS mRNA; assay: Expression of iNOS genes in LPS-stimulated BV-2 cells (RT-PCR); format: cell-based, mouse
Description: (§1) RT-PCR for GTPCH, iNOS, TNF-α, IL-1β and COX-2
(§2) 5 ? each of total RNA samples isolated from BV-2 cells were subjected to reverse-transcription (RT), and then polymerase chain reaction (PCR) for 30 cycles under the conditions of 94° C. for 30 seconds, 60° C. for 40 seconds and 72° C. for one minute. Primers used in the PCR were as follows: iNOS (forward, ATGTCCGAAG-CAAACATCAC; reverse, TAATGTC CAGGAAGTAGGTG), TNF-α (forward, CA-[…] reverse, CAGAGCAATGACTC-CAAAGTAGACCT), IL-1β (forward, […]; reverse, CAGGACAGGTAT AGATTCTTTCCTTT), COX-2 (forward, […]; reverse, […]), GTPCH (forward, GGATACCAGGAGACCAT CTCA; reverse, TAGCATGGTGC-TAGTGACAGT). RT-PCR for B2M was simultaneously performed as internal control. The PCR products were subjected to electrophoresis in a 1.5% agarose gel, thereby confirming the presence of a desired size of single band.
(§3) The assay was performed to determine whether EHMTIQ (11a) affects the expression of iNOS genes. LPS-stimulated BV-2 cell samples were treated with various concentrations of EHMTIQ (11a), and the expression of iNOS gene was estimated by RT-PCR. The results are illustrated in FIG. 6.

[3] = test system: mouse model of Parkinson's disease induced by MPTP; assay: Mouse model of Parkinson's disease induced by MPTP (immunostaining of substantia nigra and striatum); format: in vivo
[4] = Free-radical scavenging activity (DPPH); conditions: various concentrations
Description: Measurement of Free-Radical Scavenging Activity
Antioxidant activity was evaluated based on scavenging activity of 2,2-diphenyl-1-picrylhydrazyl (DPPH) radical. DPPH was dissolved in 80% methanol to make a final concentration of 100 ? . 8 ? of EHMTIQ (11a) dissolved in dimethyl sulfoxide reacted with 232 ? of DPPH radical solution. The reaction mixture was incubated for 25 minutes at RT, and then the absorbance of DPPH was measured at 517 nm using a SpectraMax GEMINI XS fluorescence spectrophotometer (Molecular Devices, Sunnyvale, Calif., USA).
Free radicals produced by an activated microglial cell cause oxidative stress and structural transformation in protein, nucleic acid and lipids of a neuron, which lead to cell injury. Accordingly, the assay was performed to determine whether EHMTIQ (11a) has free radical scavenging activity.

[5] = test system: mouse liver cell; assay: Toxicity to mouse liver cell; format: in vivo; conditions: FIG. 16
[6] = test system: SK-N-BE(2)C cells; assay: Protective effect against neuron death due to substances released from activated microglial cells (LDH); format: cell-based; conditions: culture medium from 50 EHMTIQ + LPS-treated BV-2 cells
Description: Measurement of Lactate Dehydrogenase (LDH) Activity
0.26 mM NADH, 2.87 mM sodium pyruvate and 100 mM potassium phosphate buffer (pH 7.4) were added to cell culture medium (50 ? ) to make a total volume of 200 ? , and then cultured at RT. The resultant NAD^+ was measured at 340 nm for 5 minutes at 2-second intervals using a microplate spectrophotometer (SPECTRA MAX 340 pc; Molecular Devices, Menlo Park, Calif., USA).
BV-2 microglial cells were planted in a 24-well Petri dish at a density of 2.5×10^5 cells/ml. After an overnight culture, the cells were treated with […] lipopolysaccharide and EHMTIQ (11a) and then cultured for 12 more hours. At the same time, SK-N-BE(2)C cells were planted in a 24-well Petri dish at 0.5×10^5 cells/ml and cultured for 24 hours. The culture medium for SK-N-BE(2) C cells was removed and the culture medium for BV-2 was added thereto. After 24 hours, the death rate of SK-N-BE(2)C cells was measured using LDH.
The assay was performed to determine whether EHMTIQ (11a) protects a dopaminergic cell from injuries due to inflammatory substances released from an activated microglial cell. SK-N-BE(2)C cells were transferred to a culture medium containing substances released from LPS-stimulated BV-2 cells, and the cell death rate was measured by activity of LDH contained in the culture medium and compared with that in the EHMTIQ (11a)-treated BV-2 culture medium.

[7] = test system: TNF-α mRNA; assay: Expression of TNF-α genes in LPS-stimulated BV-2 cells (RT-PCR); format: cell-based, mouse
Description: as §1, §2
as §3, with “TNF-α production in an activated microglial cell.” for “the expression of iNOS genes.”, “(11a)” for “(11a),”, “TNF-α genes” for “iNOS gene”, “3.” for “6.”

[8] = test system: GTPCH mRNA; assay: Expression of GTPCH genes in LPS-stimulated BV-2 cells (RT-PCR); format: cell-based, mouse
Description: as §1, §2
GTP cyclohydrolase I (GTPCH) is a rate-limiting enzyme in the synthesis of tetrahydrobiopterin (BH4) which is essential for iNOS catalysis. Accordingly, the down regulation of GTPCH may lower NO production. The assay was performed to determine whether EHMTIQ (11a) affects the expression of GTPCH genes induced by LPS. The LPS-stimulated BV-2 cell samples were treated with various concentrations of EHMTIQ (11a) and the expression of GTPCH genes was estimated by RT-PCR. The results are illustrated in FIG. 7.

CCC(=O)N1CCc2cc(OC)c(O)cc2C1 [EHMTIQ (11a), 2-ethylcarbonyl-7-hydroxy-6-methoxy-1,2,3,4-tetrahydroisoquinoline]
cytotoxicity [1]: did not exhibit any cytotoxicity
expression of iNOS genes compared to the control only treated with LPS ([2]; 5 (unit as image)): 82±1%
expression of iNOS genes compared to the control only treated with LPS ([2]; 100 (unit as image)): 24±1%
activation of microglial cells in the substantia nigra (Iba-1 immunostaining) ([3]; MPTP mouse (FIG. 13)): inhibitory effect
dopaminergic neurons in the substantia nigra (TH immunostaining) ([3]; MPTP mouse (FIG. 14)): protective effect
degeneration of dopaminergic neurons in the substantia nigra (fluoroJade C and TH double labelling) ([3]; MPTP mouse (FIG. 14, right panels)): inhibitory effect
dopamine nerve terminals in the striatum (TH immunostaining) ([3]; MPTP mouse (FIG. 15)): protective effect
scavenging activity of DPPH radicals [4]: proportional to the concentration
toxicity to a mouse liver cell [5]: non-toxicity
cell injury rate of SK-N-BE(2)C cells [6]: reduced
mRNA level of TNF-α ([7]; 2.5 (unit as image)): decreased the mRNA level to a statistically significant level
mRNA level of TNF-α compared to the control only treated with LPS ([7]; 5 (unit as image)): 74±1%
mRNA level of TNF-α compared to the control only treated with LPS ([7]; 100 (unit as image)): 36±1%
gene expression of GTPCH ([8]; 2.5 (unit as image)): 17±1%
gene expression of GTPCH ([8]; 100 (unit as image)): 75±1%
